Source: the supplement of paper PMC10307832

How the values were obtained:
Assay in all cases: relative viability (nuclei count vs DMSO), 5 days (fraction); higher = more cells survive
[1] = compound: CCN1CCC(CC1)N2C=C(N=N2)CNC3=CC4=C(C(=CN=C4C(=C3)Cl)C#N)NC5=CC(=C(C=C5)F)Cl [KIN001-266] + Nc1ncn([C@H]2C[C@H](O)[C@@H](CO)O2)c(=O)n1 [Decitabine] (partner 2 µM)
Summary of the method: (§1)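 Relative viability divides the nuclei count in treated wells by that in vehicle wells. Lung cancer cell lines were seeded in 1536-well plates, dosed by pin tool the next day, and fixed and stained after 5 days in one step with final 0.05% Triton X-100, 1% formaldehyde and 1 ug/ml Hoechst. Dosing was a single drug or a fixed anchor-drug dose plus five library-drug doses (not always all listed) in √10 steps, and values are medians of duplicate plates imaged at 4×.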

[2] = compound: CCN1CCC(CC1)N2C=C(N=N2)CNC3=CC4=C(C(=CN=C4C(=C3)Cl)C#N)NC5=CC(=C(C=C5)F)Cl [KIN001-266] + CC(C)C[C@H](NC(=O)[C@H](Cc1ccccc1)NC(=O)c1cnccn1)B(O)O [Bortezomib] (partner 0.002 µM)
Summary of the method: as §1

[3] = compound: CCN1CCC(CC1)N2C=C(N=N2)CNC3=CC4=C(C(=CN=C4C(=C3)Cl)C#N)NC5=CC(=C(C=C5)F)Cl [KIN001-266] + CS(=O)(=O)CCNCc1ccc(-c2ccc3ncnc(Nc4ccc(OCc5cccc(F)c5)c(Cl)c4)c3c2)o1 [Lapatinib] (partner 2 µM)
Summary of the method: as §1

[4] = compound: CCN1CCC(CC1)N2C=C(N=N2)CNC3=CC4=C(C(=CN=C4C(=C3)Cl)C#N)NC5=CC(=C(C=C5)F)Cl [KIN001-266] + NC(=O)Nc1cc(-c2cccc(F)c2)sc1C(=O)N[C@H]1CCCNC1 [AZD7762] (partner 0.2 µM)
Summary of the method: as §1

| Cell Line | relative viability ([1]; first compound 0.08 µM) | relative viability ([1]; first compound 0.253 µM) | relative viability ([1]; first compound 0.8 µM) | relative viability ([1]; first compound 2.53 µM) | relative viability ([1]; first compound 8 µM) | relative viability ([2]; first compound 0.08 µM) | relative viability ([2]; first compound 0.253 µM) | relative viability ([2]; first compound 0.8 µM) | relative viability ([2]; first compound 2.53 µM) | relative viability ([2]; first compound 8 µM) | relative viability ([3]; first compound 0.08 µM) | relative viability ([3]; first compound 0.253 µM) | relative viability ([3]; first compound 0.8 µM) | relative viability ([3]; first compound 2.53 µM) | relative viability ([3]; first compound 8 µM) | relative viability ([4]; first compound 0.08 µM) | relative viability ([4]; first compound 0.253 µM) | relative viability ([4]; first compound 0.8 µM) | relative viability ([4]; first compound 2.53 µM) | relative viability ([4]; first compound 8 µM) |
| --- | --- | --- | --- | --- | --- | --- | --- | --- | --- | --- | --- | --- | --- | --- | --- | --- | --- | --- | --- | --- |
| NCI-H1993 | 0.66 | 0.563 | 0.415 | 0.579 | 0.607 | 1.04 | 1.29 | 1.06 | 1.01 | 0.858 | 0.896 | 0.775 | 0.841 | 0.793 | 0.746 | 1.06 | 0.815 | 0.673 | 0.827 | 0.624 |
| NCI-H2085 | 0.567 | 0.57 | 0.517 | 0.474 | 0.499 | 1.01 | 1.04 | 0.888 | 1.14 | 0.916 | 0.829 | 0.853 | 0.716 | 0.755 | 0.617 | 0.971 | 1.03 | 0.847 | 0.962 | 0.977 |
| NCI-H2087 | 0.29 | 0.288 | 0.257 | 0.299 | 0.258 | 0.761 | 0.87 | 0.717 | 0.719 | 0.609 | 1.03 | 1.05 | 1.06 | 0.987 | 0.875 | 1.28 | 1.37 | 1.51 | 1.25 | 0.771 |
| NCI-H2126 | 0.625 | 0.56 | 0.647 | 0.572 | 0.552 | 1.16 | 1.12 | 1.15 | 1.13 | 1.14 | 0.796 | 0.757 | 0.765 | 0.676 | 0.734 | 1.03 | 1.02 | 1 | 0.814 | 1.05 |
| NCI-H2347 | 0.64 | 0.643 | 0.56 | 0.622 | 0.458 | 1.16 | 1.03 | 0.905 | 0.858 | 0.611 | 0.952 | 0.956 | 0.925 | 0.915 | 0.51 | 0.77 | 0.799 | 0.771 | 0.736 | 0.537 |
| NCI-H2405 | 0.772 | 0.78 | 0.783 | 0.694 | 0.627 | 0.99 | 1 | 0.984 | 0.925 | 0.809 | 1.08 | 1.23 | 1.09 | 1.16 | 0.936 | 0.761 | 0.752 | 0.865 | 0.739 | 0.488 |
| NCI-H3122 | 0.435 | 0.472 | 0.426 | 0.442 | 0.326 | 0.996 | 1.03 | 1.03 | 0.969 | 0.974 | 0.893 | 0.945 | 1.03 | 0.964 | 0.907 | 0.937 | 1.15 | 1.08 | 0.947 | 0.956 |
| PC-3 [JPC-3] | 0.786 | 0.87 | 0.823 | 0.824 | 0.737 | 0.786 | 0.846 | 0.813 | 0.736 | 0.764 | 0.451 | 0.447 | 0.422 | 0.414 | 0.499 | 0.792 | 0.915 | 0.799 | 0.775 | 0.801 |
| PC-14 | 0.214 | 0.253 | 0.2 | 0.265 | 0.229 | 0.881 | 0.816 | 0.892 | 0.759 | 0.297 | 0.307 | 0.368 | 0.27 | 0.287 | 0.312 | 0.365 | 0.405 | 0.315 | 0.355 | 0.3 |
| RERF-LC-KJ | 0.744 | 0.777 | 0.767 | 0.64 | 0.497 | 1.11 | 1.23 | 1.08 | 1.01 | 0.82 | 0.871 | 0.828 | 0.817 | 0.857 | 0.781 | 0.984 | 0.876 | 0.809 | 0.768 | 0.947 |
